Test results as given in PubChem BioAssay AID1963826 (Molecular Pharmacology Branch, DTP, NCI, 2024).

Tested on: 926638-142-R-J1-PDC complex spheroid viability
Assay: Anticancer human tumor 926638-142-R-J1-PDC patient-derived endometrial carcinoma cell line growth inhibition [POLQ]
Conditions: for IC50: curve of first compound; for viability, T/C: stronger effect = lower value
Summary of the method: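 Complex spheroid viability model combining PDC tumour cells with endothelial (HUVEC) and MSC stromal cells. Novobiocin, ART-558 or RP6685 were tested singly and in combination with standard and investigational anticancer drugs. Each was titrated in half-log steps from near clinical Cmax, or from 10 microM where Cmax was unknown.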

[1] = second compound 0.0316 µM, first compound 0.0316 µM
[2] = second compound 0.0316 µM, first compound 0.1 µM
[3] = second compound 0.0316 µM, first compound 0.316 µM
[4] = second compound 0.0316 µM, first compound 1 µM
[5] = second compound 0.1 µM, first compound 0.0316 µM
[6] = second compound 0.1 µM, first compound 0.1 µM
[7] = second compound 0.1 µM, first compound 0.316 µM
[8] = second compound 0.1 µM, first compound 1 µM
[9] = second compound 0.316 µM, first compound 0.0316 µM
[10] = second compound 0.316 µM, first compound 0.1 µM
[11] = second compound 0.316 µM, first compound 0.316 µM
[12] = second compound 0.316 µM, first compound 1 µM
[13] = second compound 1 µM, first compound 0.0316 µM
[14] = second compound 1 µM, first compound 0.1 µM
[15] = second compound 1 µM, first compound 0.316 µM
[16] = second compound 1 µM, first compound 1 µM
[17] = second compound 3.16 µM, first compound 0.0316 µM
[18] = second compound 3.16 µM, first compound 0.1 µM
[19] = second compound 3.16 µM, first compound 0.316 µM
[20] = second compound 3.16 µM, first compound 1 µM
[21] = second compound 10 µM, first compound 0.0316 µM
[22] = second compound 10 µM, first compound 0.1 µM
[23] = second compound 10 µM, first compound 0.316 µM
[24] = second compound 10 µM, first compound 1 µM
[25] = second compound 0.0316 µM, first compound 0.00316 µM
[26] = second compound 0.0316 µM, first compound 0.01 µM
[27] = second compound 0.1 µM, first compound 0.00316 µM
[28] = second compound 0.1 µM, first compound 0.01 µM
[29] = second compound 0.316 µM, first compound 0.00316 µM
[30] = second compound 0.316 µM, first compound 0.01 µM
[31] = second compound 1 µM, first compound 0.00316 µM
[32] = second compound 1 µM, first compound 0.01 µM
[33] = second compound 3.16 µM, first compound 0.00316 µM
[34] = second compound 3.16 µM, first compound 0.01 µM
[35] = second compound 10 µM, first compound 0.00316 µM
[36] = second compound 10 µM, first compound 0.01 µM
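Also: spheroids exposed to drugs for one week before readout.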
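For viability, T/C in this document: percent viability relative to DMSO vehicle control wells set as 100%.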

`COc1ccc([C@@H](O)c2cc(-c3ncnc4cc(N5CCOCC5)ccc34)c(F)cc2Cl)nn1` + Nc1ccc(C#CCN(C(=O)Cc2ncc(C(F)(F)F)cc2C(F)(F)F)c2ccc(F)cc2)nn1 showed an IC50 (second compound 0.0316 µM) of 631 nM, an IC50 (second compound 0.1 µM) of 450 nM and an IC50 (second compound 0.316 µM) of 572 nM. It also gave an IC50 (second compound 1 µM) of 708 nM, an IC50 (second compound 3.16 µM) of 628 nM and an IC50 (second compound 10 µM) of 537 nM. It also gave a viability, T/C [1] of 90.7%, a viability, T/C [2] of 82% and a viability, T/C [3] of 58.1%. The viability, T/C [4] was 47.2%, the viability, T/C (second compound 0.0316 µM, first compound 3.16 µM) was 20.1% and the viability, T/C (second compound 0.0316 µM, first compound 10 µM) was 14.7%. It also gave a viability, T/C [5] of 101%, a viability, T/C [6] of 83.3% and a viability, T/C [7] of 56.6%. It also gave a viability, T/C [8] of 34%, a viability, T/C (second compound 0.1 µM, first compound 3.16 µM) of 19.4% and a viability, T/C (second compound 0.1 µM, first compound 10 µM) of 12.7%. It also gave a viability, T/C [9] of 119%, a viability, T/C [10] of 101% and a viability, T/C [11] of 67.1%. It also gave a viability, T/C [12] of 33.9%, a viability, T/C (second compound 0.316 µM, first compound 3.16 µM) of 19.8% and a viability, T/C (second compound 0.316 µM, first compound 10 µM) of 15%. It also gave a viability, T/C [13] of 103%, a viability, T/C [14] of 88.9% and a viability, T/C [15] of 71.9%. For the same compound, the viability, T/C [16] was 41.2%, the viability, T/C (second compound 1 µM, first compound 3.16 µM) was 20% and the viability, T/C (second compound 1 µM, first compound 10 µM) was 13.2%. The viability, T/C [17] was 91.6%, the viability, T/C [18] was 75.8% and the viability, T/C [19] was 67%. The viability, T/C [20] was 39.3%, the viability, T/C (second compound 3.16 µM, first compound 3.16 µM) was 22.9% and the viability, T/C (second compound 3.16 µM, first compound 10 µM) was 12.7%. The viability, T/C [21] was 81.4%, the viability, T/C [22] was 76.2% and the viability, T/C [23] was 65.6%. For the same compound, the viability, T/C [24] was 32%, the viability, T/C (second compound 10 µM, first compound 3.16 µM) was 15% and the viability, T/C (second compound 10 µM, first compound 10 µM) was 10.2%.

`COc1cccc(OCCCN)c1-c1cc(Nc2cnc(C#N)cn2)n[nH]1` + Nc1ccc(C#CCN(C(=O)Cc2ncc(C(F)(F)F)cc2C(F)(F)F)c2ccc(F)cc2)nn1 was tested, and the IC50 (second compound 0.0316 µM) was 70.7 nM, the IC50 (second compound 0.1 µM) was 112 nM and the IC50 (second compound 0.316 µM) was 94.9 nM. For the same compound, the IC50 (second compound 1 µM) was 77.6 nM, the IC50 (second compound 3.16 µM) was 40.6 nM and the IC50 (second compound 10 µM) was 65.4 nM. The viability, T/C [25] was 115%, the viability, T/C [26] was 76.4% and the viability, T/C [1] was 56%. It also gave a viability, T/C [2] of 47.3%, a viability, T/C [3] of 49.3% and a viability, T/C [4] of 32.3%. It also gave a viability, T/C [27] of 115%, a viability, T/C [28] of 84.6% and a viability, T/C [5] of 62.7%. It also gave a viability, T/C [6] of 50.7%, a viability, T/C [7] of 48.4% and a viability, T/C [8] of 31.3%. It also gave a viability, T/C [29] of 111%, a viability, T/C [30] of 79.2% and a viability, T/C [9] of 60.4%. It also gave a viability, T/C [10] of 48.3%, a viability, T/C [11] of 48.2% and a viability, T/C [12] of 36.7%. The viability, T/C [31] was 121%, the viability, T/C [32] was 78.5% and the viability, T/C [13] was 60.6%. The viability, T/C [14] was 45.9%, the viability, T/C [15] was 48.5% and the viability, T/C [16] was 31.6%. For the same compound, the viability, T/C [33] was 89.5%, the viability, T/C [34] was 73.4% and the viability, T/C [17] was 49.5%. It also gave a viability, T/C [18] of 43.4%, a viability, T/C [19] of 45.2% and a viability, T/C [20] of 31.7%. The viability, T/C [35] was 86.6%, the viability, T/C [36] was 71.7% and the viability, T/C [21] was 50.2%. The viability, T/C [22] was 44.2%, the viability, T/C [23] was 51.3% and the viability, T/C [24] was 27.1%.

`Cn1ncnc1[C@H]1c2n[nH]c(=O)c3cc(F)cc(c23)N[C@@H]1c1ccc(F)cc1` + Nc1ccc(C#CCN(C(=O)Cc2ncc(C(F)(F)F)cc2C(F)(F)F)c2ccc(F)cc2)nn1 was tested, and the IC50 (second compound 0.0316 µM) was greater than 100 nM, the IC50 (second compound 0.1 µM) was greater than 100 nM and the IC50 (second compound 0.316 µM) was greater than 100 nM. The IC50 (second compound 1 µM) was greater than 100 nM, the IC50 (second compound 3.16 µM) was greater than 100 nM and the IC50 (second compound 10 µM) was greater than 100 nM. It also gave a viability, T/C (second compound 0.0316 µM, first compound 0.000316 µM) of 117%, a viability, T/C (second compound 0.0316 µM, first compound 0.001 µM) of 89.7% and a viability, T/C [25] of 99.6%. The viability, T/C [26] was 75.7%, the viability, T/C [1] was 69.8% and the viability, T/C [2] was 74.5%. For the same compound, the viability, T/C (second compound 0.1 µM, first compound 0.000316 µM) was 123%, the viability, T/C (second compound 0.1 µM, first compound 0.001 µM) was 90.1% and the viability, T/C [27] was 101%. The viability, T/C [28] was 78%, the viability, T/C [5] was 79.8% and the viability, T/C [6] was 68.5%. The viability, T/C (second compound 0.316 µM, first compound 0.000316 µM) was 91.9%, the viability, T/C (second compound 0.316 µM, first compound 0.001 µM) was 98.5% and the viability, T/C [29] was 83.6%. The viability, T/C [30] was 84%, the viability, T/C [9] was 84.9% and the viability, T/C [10] was 66.2%. For the same compound, the viability, T/C (second compound 1 µM, first compound 0.000316 µM) was 108%, the viability, T/C (second compound 1 µM, first compound 0.001 µM) was 96.7% and the viability, T/C [31] was 75.6%. It also gave a viability, T/C [32] of 83.2%, a viability, T/C [13] of 70.4% and a viability, T/C [14] of 80.5%. The viability, T/C (second compound 3.16 µM, first compound 0.000316 µM) was 82.3%, the viability, T/C (second compound 3.16 µM, first compound 0.001 µM) was 96.3% and the viability, T/C [33] was 92.2%. For the same compound, the viability, T/C [34] was 92.4%, the viability, T/C [17] was 82.9% and the viability, T/C [18] was 71.2%. The viability, T/C (second compound 10 µM, first compound 0.000316 µM) was 94.3%, the viability, T/C (second compound 10 µM, first compound 0.001 µM) was 99.2% and the viability, T/C [35] was 78.7%. The viability, T/C [36] was 74%, the viability, T/C [21] was 81.9% and the viability, T/C [22] was 75.7%.
